Biological target: T1, CBM-GST (CBM of OsBC1L6) (Oryza sativa, UniProt Q6Z4G8)
T1 construct: gene BC1L6; wheat germ cell-free expression; 48 kDa by SDS-PAGE
T1 sequence (Q6Z4G8 31-191): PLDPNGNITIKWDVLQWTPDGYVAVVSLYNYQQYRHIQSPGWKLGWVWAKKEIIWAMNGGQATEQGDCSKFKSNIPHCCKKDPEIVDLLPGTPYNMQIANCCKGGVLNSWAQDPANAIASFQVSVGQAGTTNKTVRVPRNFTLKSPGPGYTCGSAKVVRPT
Test: surface plasmon resonance (Biacore T200)
Assay type: binding
Settings: CBM-GST captured by anti-GST on CM5 chip; HBS-EP pH 7.4, 25°C

Row | Kd [µM] | Structure (SMILES)
1 | 852 | OC[C@H]1O[C@@H](O[C@H]2[C@H](O)[C@@H](O)[C@H](O[C@H]3[C@H](O)[C@@H](O)[C@H](O[C@H]4[C@H](O)[C@@H](O)[C@H](O[C@H]5[C@H](O)[C@@H](O)[C@H](O[C@H]6[C@H](O)[C@@H](O)C(O)O[C@@H]6CO)O[C@@H]5CO)O[C@@H]4CO)O[C@@H]3CO)O[C@@H]2CO)[C@H](O)[C@@H](O)[C@@H]1O (some centres unmarked) [GGGGGG, cellohexaose]
2 | 760 | OC1OC[C@@H](O[C@@H]2OC[C@@H](O[C@@H]3OC[C@@H](O[C@@H]4OC[C@@H](O[C@@H]5OC[C@@H](O[C@@H]6OC[C@@H](O)[C@H](O)[C@H]6O)[C@H](O)[C@H]5O)[C@H](O)[C@H]4O)[C@H](O)[C@H]3O)[C@H](O)[C@H]2O)[C@H](O)[C@H]1O (some centres unmarked) [XXXXXX, xylohexaose]
